The values that follow come from paper PMC8370201, “Amaryllidaceae Alkaloid Cherylline Inhibits the Replication of Dengue and Zika Viruses” (Antimicrobial Agents and Chemotherapy, 2021).

The subject of data set [1] is interferon-sensitive response element (ISRE) transcription. Nature of the data set: Type I IFN activation assay (ISRE-luciferase) in LL171 cells. The format is cell-based, Murine. The following applies: 50 μM, 24 h. As to the method: In vitro type I IFN activation was measured in LL171 cells using the luciferase assay system kit (Promega). Briefly, 200 μl LL171 reporter cells (L929 cells expressing an IFN stimulated response element [ISRE]-luciferase) were seeded at 1.5 × 10^4 cells/well in 96-well plates and cultured for 16 h. Medium was replaced with DMEM containing cherylline for 24 h. Supernatant was removed, cells were rinsed with PBS, and lysis buffer was added (luciferase assay reagent; Promega). Then, cells were scraped and transferred into opaque 96-well plates. LAR (luciferase assay reagent; Promega) was added to each well, and luminescence was measured at 480 nm using a microplate spectrophotometer (Synergy H1). 5,6-dimethylxanthenone-4-acetic acid (DMXAA, 20 μg/ml) was used as a positive control. All assays were performed in triplicate.

In data set [2] the test system is DENV2 16881s. Nature of the data set: Plaque assay, infectious titers of WT DENV2 16881s from Huh7.5 cells. The format is cell-based, dengue virus (DENV). As to conditions: treated 2 hpi, supernatant 48 h later. As to the method: Huh7.5 cells were infected with DENV 16881s, ZIKV H/PF/2013, or ZIKV MR766 (MOI, 0.1) or left uninfected. […] Supernatants were harvested 2 days pi, and PFU were determined by plaque assay on VeroE6 cells. Cells incubated overnight (2 × 10^5 cells/well in 24-well plates) were infected with 10-fold serially diluted virus-containing supernatants for 2 h at 37°C. Inoculum was then replaced with MEM (Life Technologies) containing 1.5% carboxymethylcellulose (Millipore-Sigma). ZIKV- and DENV-infected cells were incubated for 5 and 7 days, respectively. One volume of 10% formaldehyde was added to the cells for fixation. Two hours later, cells were washed with tap water and stained with a 1% crystal violet/10% ethanol solution for 30 min. Wells were rinsed with tap water, and the number of plaques were counted to calculate virus titers.

Data set [3] deals with ZIKVR2A. The following applies: for SI ZIKVR2A (therapeutic selectivity index): CC50/EC50, Huh7.5.
In data set [4] the test system is Huh7 cells. Nature of the data set: XTT cytotoxicity assay in Huh7 cells. As to conditions: 0.4 to 400 μM, 72 hours. The format is cell-based, human. As to the method: Cytotoxicity properties were titrated by metabolism monitoring using the XTT [2,3-bis-(2-methoxy-4-nitro-5-sulfophenyl)-2H-tetrazolium-5-carboxanilide] assay kit (Roche, Millipore Sigma), as described before ([24]). Briefly, Huh7 cells were seeded at 10 × 10^3 cells per well in 96-well plates. […] After 72 h of incubation, medium was replaced by phenol-free DMEM (Wisent) containing 0.3 mg/ml XTT, and cells were incubated for 4 h. Absorbance was measured at 450nm using a microplate spectrophotometer (Synergy H1, Biotek). Treatment conditions with 0.5% DMSO were used as the reference control. The percentage of cell viability was calculated at each concentration.

Data set [5] deals with DENVGFP. Nature of the data set: Time-of-drug-addition and -removal assays, DENVGFP in Huh7 cells. The format is cell-based, dengue virus (DENV). The method, then: For the time-of-drug-addition assay, at the time of infection, AAs were added in wells corresponding to 0 h. At 2 hpi, viral inoculum was removed from every well, and AAs were added back to wells corresponding to 0 h and 2 h. At 4, 7, 12, and 24 hpi, AAs or DMSO diluted in DMEM was added to the appropriate wells. After 72 h, cells were trypsinized and fixed in 4% formaldehyde to measure the percentage of infected cells on an FC500 MPL cytometer. Alternatively, pictures of Hoechst 33342-stained cells were acquired on an Axio Observer microscope. All assays were performed in triplicate.
At 2 hpi, plates were washed, and medium was replaced to remove remaining viruses in the supernatant. AAs were added back to all wells, except the ones corresponding to 2 h of treatment, in which fresh medium exclusive of any AA was added. Accordingly, after 4, 7, and 12 h of infection, the supernatant was replaced by fresh medium in corresponding wells. After 72 h of incubation, results were acquired as for the time-of-drug-addition assay. All assays were performed in triplicate.

For data set [6], the system named is ZIKV H/PF/2013. Nature of the data set: Viral RNA levels by RT-qPCR, ZIKV. The following applies: 12 and 24 h; MOI 2, Huh7.5, 50 μM. The format is cell-based, Zika virus (ZIKV). Background: Quantitative PCR measures a nucleic acid by following its amplification.
Data set [7] deals with VSV-G pseudotyped HIV-1GFP. The format is cell-based.
The test system of data set [8] is DENVR2A. The following applies: CC50/EC50, Huh7.5.
Data set [9] deals with ZIKV MR766. Nature of the data set: Plaque assay, infectious titers of WT ZIKV MR766 from Huh7.5 cells. The following applies: treated 2 hpi, supernatant 48 h later. The format is cell-based, Zika virus (ZIKV).
Data set [10] has as its system DENVGFP. The data set is described as follows: DENVGFP reporter virus infection of Huh7 cells (flow cytometry / microscopy). As to conditions: for DENVGFP infected cells by microscopy: MOI 0.15, 72 hpi. (In general: Flow cytometry measures light scatter and fluorescence of single cells or particles in a stream.)
The test system of data set [11] is DENVR2A. Nature of the data set: microbe, parasite or virus in culture. As to conditions: Dengue virus, Huh7.5, read-out: EC50 (μM) for DENVR2A.
The subject of data set [12] is DENVGFP. Nature of the data set: DENVGFP infection of PBMCs with antibody-dependent enhancement (flow cytometry). The following applies: 30 μM.
Data set [13] concerns ZIKV H/PF/2013. Nature of the data set: Plaque assay, infectious titers of WT ZIKV H/PF/2013 from Huh7.5 cells. The format is cell-based, Zika virus (ZIKV). As to conditions: treated 2 hpi, supernatant 48 h later.
Data set [14] deals with DENVGFP and DENV2 16881s. The data set is described as follows: Viral RNA levels by RT-qPCR, DENV. The following applies: 12 and 24 h; DENVGFP MOI 0.5 Huh7 25 μM; DENV2 16881s MOI 2 Huh7.5 50 μM. The format is cell-based, dengue virus (DENV).
Data set [15] can be described thus: Cell viability (ATP, Cell-Titer GLO) in Huh7.5 cells. The format is cell-based. As to conditions: human. The method, then:
(§1) Where indicated for Huh7.5 and Vero E6 cells and PBMCs, cell viability was measured by monitoring of cellular ATP levels using the Cell-Titer GLO assay kit (Promega). Briefly, 10× 10^3 to 20 × 10^3 cells in 50 to 100 μl were seeded in 48-well or 96-well plates and cultured overnight. AAs were added at the designated concentrations for 24 or 48 h, as specified in the text. Then, 50 to 100 μl of room temperature Cell-Titer GLO reagent was added in each well to room temperature-equilibrated cell plates. Plates were rocked for 2 min and rested for 10 min, and the luminescence signal was measured using a microplate spectrophotometer (Biotek Synergy H1 or Tecan Spark multimode microplate reader). Viability was expressed as a fold change calculated using the value of DMSO-treated cells at each concentration; for each AA and CC50, values were determined.

The test system of data set [16] is ZIKVR2A. Nature of the data set: microbe, parasite or virus in culture. The following applies: Zika virus, Huh7.5, read-out: EC50 (μM) for ZIKVR2A, Huh7.5 cells, luciferase at 48 hpi.
The subject of data set [17] is ZIKV NS5 RdRp. On the set-up: method as in PMID 32452420. The following applies: 100 μM; cited from earlier work.
The subject of data set [18] is West Nile virus NS5. Set-up: method as in PMID 19062063. As to conditions: cited from earlier work.
The test system of data set [19] is PBMCs. Nature of the data set: Cytotoxicity in PBMCs (ATP). As to conditions: 48 h posttreatment, cherylline 30 μM. The format is cell-based, human. The method, then:
as §1

Data set [20] deals with DENV. Set-up: method as in PMID 20496087. The following applies: read-out: EC50, inhibition of DENV; cited from earlier work.
[21] abbreviates: added at 24 hpi, cherylline 50 μM, NITD008 10 μM.

“Also recorded” adds a separate entry of the source. Where two headings read alike, the source gives them in different places. Some results are limits rather than exact numbers.

Turning to `COc1cc2c(cc1O)CN(C)C[C@H]2c1ccc(O)cc1` [Cherylline, cherylline], in [1], the “type I interferon (IFN) induction, ISRE transcription” value is “did not trigger a significant amount of type I interferon”. The “decrease in DENV 16881s viral titers” value in data set [2] (50 μM) came to 17 fold. Moreover, in [3], the “SI ZIKVR2A (therapeutic selectivity index)” value is recorded as >12.3. The EC50 – broadly, the concentration at which the effect is half-maximal – in [3] (read-out: EC50 (μM) for ZIKVR2A, Huh7.5 cells, luciferase at 48 hpi) amounted to 20.3 µM; in data set [10] (Dengue virus, Huh-7, read-out: EC50, DENVGFP infection) it was 8 µM; in data set [11], 8.8 µM; in [16], 20.3 µM. For the same compound, the “cytotoxic activity of AAs” value in data set [4] is reported as “cytotoxic”. Besides, in data set [5] (Huh7, treated 2 h prior to infection, removed 2 hpi, microscopy), the “infection after removal of compound 2 hpi vs continuous treatment” value was “restored virus replication completely”. In addition, the “time of drug addition: effect on DENVGFP-infected Huh7 cells 72 hpi” value was “lost one-third of its inhibitory potential” in data set [5] (setting [21]); “some cherylline antiviral activity was lost” in [5] (cherylline 50 μM, added at 12 hpi); “entirely blocked viral replication” in data set [5] (cherylline 50 μM, added between 0 and 7 hpi). The “time of drug removal: inhibition of DENVGFP replication” value in data set [5] (cherylline 50 μM, present for the first 12 h) is recorded as “successfully impaired DENV replication”; in data set [5] (cherylline 50 μM, removed at 2, 4, or 7 hpi), “inhibition of viral replication was lost”. Also, the “viral RNA levels (RT-qPCR)” value in data set [6] and in data set [14] was “decrease in viral RNA levels” in each case. The “HIV-1 infection” value in [7] is given as “no effect; also recorded: did not affect HIV-1 infection; also recorded: did not detect any antiretroviral activity”. Also, in [8], the “SI DENVR2A (therapeutic selectivity index)” value was >28. Besides, in data set [9] (AAs 50 μM), the “decrease in WT ZIKV MR766 replication” value stood at 8 fold. Also, in data set [9] (AAs 50 μM), the “decrease in ZIKV MR766 viral titer” value was found to be 88%. For the same compound, the “DENVGFP infected cells by microscopy” value is “no apparent difference with the control” in [10] (Huh7, 0.4 μM); “most of the cells were infected” in [10] (Huh7, 2 μM); “Several foci of infected cells became visible” in data set [10] (Huh7, 10 μM); “no detectable infection; also recorded: no infected cells were observed” in data set [10] (Huh7, 50 μM). The “median GFP+ cells” value in data set [12] (MOI 2, 72 hpi) was 0.1%. Moreover, the “decrease in the percentage of GFP+ cells” value in [12] (MOI 2, 72 h) is recorded as 5.3 fold. The “decrease in ZIKV H/PF/2013 viral titer” value in [13] (AAs 50 μM) is listed as 100 fold. In [15], the CC50 (as a rule, the concentration that lowers cell viability or growth by half) at 48 h was > 250 µM.
As to `O[C@H]1[C@H]2c3cc4c(cc3CN3CCC(=C[C@@H]1O)[C@H]23)OCO4` [Lycorine, lycorine], in data set [3], the “SI ZIKVR2A (therapeutic selectivity index)” value came out at 35.4. The “cytotoxic activity of AAs” value in data set [4] is given as “cytotoxic”. The “SI DENVR2A (therapeutic selectivity index)” value in [8] was determined as 90.6. In addition, the “anti-DENV activity in screening (GFP microscopy, words)” value in data set [10] (Huh7, treated 2 h before DENVGFP MOI 0.15, 72 hpi, at the chosen concentration) is “sharp decrease in DENV-GFP-infected cells”. The “inhibition of ZIKV NS5 RdRp activity in vitro” value in [17] is given as 80%. In addition, the EC50 is 0.16 µM in [11] and 0.41 µM in [16]. For the same compound, in data set [15] (Huh7.5 cells, Huh7.5, ATP, 48 h posttreatment, read-out: CC50), the CC50 at 48 h was determined as 14.5 µM. Further, the “effect on West Nile virus NS5” value in data set [18] was “no effect”.
For `C#C[C@@]1(O)[C@H](O)[C@@H](CO)O[C@H]1n1ccc2c(N)ncnc21` [NITD008, reference compound], in data set [2] (AAs 50 μM), the “production of DENV infectious particles (words)” value was “completely hindered the production of infectious particles”. Also, the “time of drug addition: effect on DENVGFP-infected Huh7 cells 72 hpi” value in data set [5] (NITD008 10 μM, added at 0, 2, 4, 7, or 12 hpi) is reported as “abrogated GFP expression”; in [5] (setting [21]) it was “Low levels of infection rose”. For the same compound, the “production of ZIKV MR766 infectious particles (words)” value in data set [9] is listed as “completely hindered the production of infectious particles”. Further, in data set [13], the “production of ZIKV H/PF/2013 infectious particles (words)” value is “completely hindered the production of infectious particles”. For the same compound, in [19], the “cytotoxicity in PBMCs” value was “cytotoxic in PBMCs”.
With `COc1cc2c(cc1OC)-c1cc3ccc(OC)c(OC)c3c[n+]1CC2` [Palmatine], the EC50 in data set [20] is 26.4 µM.
